In US20170027938A1, “Combination” (Novartis AG, priority 2011, published 2017):

Test system: 231/LM2-4 human breast cancer cells
Assay: Advanced metastatic breast cancer model (231/LM2-4), survival after primary tumor resection
Assay type: in vivo, CB-17 SCID mice
Details: for Median survival: therapy initiated 19 days after resection
Source text: The original cell line, MDA-MB 231, was a gift from Dr. Jeffrey F. Lemontt in September, 1989, together with other variants of this cell line. Cell line 231/LM2-4 (human breast cancer cells) used in the study was derived by one of the inventors as described in Munoz R, Man S, Shaked Y, et al. Highly efficacious non-toxic treatment for advanced metastatic breast cancer using combination UFT-cyclophosphamide metronomic chemotherapy, Cancer Res 2006; 66:3386-91.
Two million 231/LM2-4 human breast cancer cells were implanted into the mammary fat pad of 6-8 week old female CB-17 SCID mice purchased from Charles River Canada. Twenty days later when tumor volumes were approximately 400 mm^3, the primary tumors were surgically resected. Therapy was initiated 19 days after resection when visceral metastases were established in sites such as lung and liver. Mice were randomized into groups of 4 and treated as follows: 1) Control—vehicle; 2) Low dose metronomic oral topotecan; 3) pazopanib; 4) Low dose metronomic oral topotecan+pazopanib; 5) Maximum tolerated dose topotecan; and 6) maximum tolerated dose topotecan+pazopanib. The schedule and doses of drugs used were metronomic oral topotecan 1 mg/kg/d by gavage, maximum tolerated dose topotecan 1.5 mg/kg by gavage for 5 consecutive days followed by 16 days break ip, pazopanib 150 mg/kg/d by gavage, and control mice were given the topotecan vehicle and/or pazopanib vehicle. The oral topotecan and pazopanib preparations were mixed just prior to administration to avoid possible drug interaction. Institutional guidelines for survival endpoint were followed.

Question: For `CC[C@@]1(O)C(=O)OCc2c1cc1n(c2=O)Cc2cc3c(CN(C)C)c(O)ccc3nc2-1` [topotecan, (S)-10-[(dimethylamino)methyl]-4-ethyl-4,9-dihydroxy-1H-pyrano[3′,4′:6,7]indolizino [1,2-b]quinoline-3,14-(4H,12H)-dione], which “Survival benefit compared to control untreated mice (FIG. 1)” value (LDM oral topotecan alone, 1 mg/kg/d by gavage) is on record?
Answer: neither low dose metronomic (LDM) oral topotecan alone nor pazopanib alone had any survival benefit

Question: What about the Median survival (low dose metronomic (LDM) oral topotecan alone, 1 mg/kg/d by gavage) of the same compound?
Answer: 56 days

Question: And the Median survival (maximum tolerated dose (MTD) topotecan 1.5 mg/kg for 5 consecutive days followed by 16 days break)?
Answer: 63 days
